In this data set the test system is CCRIS mutagenicity, Ames/micronucleus/aberration tests. As to the kind of experiment: CCRIS mutagenicity studies.
Where [1] appears, read: Test System: Mouse lymphoma, Strain/Indicator: L5178Y (tk+/tk-), Metabolic Activation: Rat, Liver, S-9, Aroclor 1254, Method: Suspension/plate.
Setting [2] is: Test System: AMES SALMONELLA TYPHIMURIUM, Strain/Indicator: TA100, Metabolic Activation: RAT, LIVER, S-9, AROCLOR 1254, Method: STANDARD PLATE.
The mark [3] stands for this setting: Test System: AMES SALMONELLA TYPHIMURIUM, Strain/Indicator: TA98, Metabolic Activation: NONE, Method: STANDARD PLATE.
The mark [4] stands for this setting: Test System: AMES SALMONELLA TYPHIMURIUM, Strain/Indicator: TA100, Metabolic Activation: NONE, Method: STANDARD PLATE.
The mark [5] stands for this setting: Test System: AMES SALMONELLA TYPHIMURIUM, Strain/Indicator: TA98, Metabolic Activation: RAT, LIVER, S-9, AROCLOR 1254, Method: STANDARD PLATE.
Setting [6] is: Test System: AMES SALMONELLA TYPHIMURIUM, Strain/Indicator: TA1535, Metabolic Activation: RAT, LIVER, S-9, AROCLOR 1254, Method: STANDARD PLATE.
The mark [7] stands for this setting: Test System: AMES SALMONELLA TYPHIMURIUM, Strain/Indicator: TA1537, Metabolic Activation: NONE, Method: STANDARD PLATE.
The mark [8] stands for this setting: Test System: AMES SALMONELLA TYPHIMURIUM, Strain/Indicator: TA1537, Metabolic Activation: RAT, LIVER, S-9, AROCLOR 1254, Method: STANDARD PLATE.
Where [9] appears, read: Test System: AMES SALMONELLA TYPHIMURIUM, Strain/Indicator: TA1538, Metabolic Activation: RAT, LIVER, S-9, AROCLOR 1254, Method: STANDARD PLATE.
The mark [10] stands for this setting: Test System: AMES SALMONELLA TYPHIMURIUM, Strain/Indicator: TA98, Metabolic Activation: NONE, Method: PREINCUBATION
Where [11] appears, read: Test System: AMES SALMONELLA TYPHIMURIUM, Strain/Indicator: TA100, Metabolic Activation: NONE, Method: PREINCUBATION
The mark [12] stands for this setting: Test System: AMES SALMONELLA TYPHIMURIUM, Strain/Indicator: TA1535, Metabolic Activation: NONE, Method: PREINCUBATION

Active and inactive are the calls of the source. The rule behind the calls is not given here.

For `CCCCCC(C)=O`, the mutagenic call by setting is: (Test System: CHINESE HAMSTER V-79, Strain/Indicator: V-79 (HPRT)/6-THIOGUANINE, Metabolic Activation: NONE, Method: STANDARD PLATE) “inactive; negative”; (Test System: CHINESE HAMSTER V-79, Strain/Indicator: V-79 (HPRT)/6-THIOGUANINE, Metabolic Activation: RAT LIVER S-9, Method: STANDARD PLATE) “inactive; negative”.
`Nc1ncnc2c1ncn2[C@@H]1O[C@H](CO)C[C@@H]1F`: the mutagenic call is “inactive; negative” (Test System: Mouse lymphoma, Strain/Indicator: L5178Y (tk+/tk-), Metabolic Activation: None, Method: Suspension/plate) and “active; equivocal (previous revaluation positive)” under setting [1].
As for `CC1c2ccccc2-c2ccc(F)cc21` (configuration not stated), the mutagenic call under setting [2] is “active; positive”.
Take `CC(=O)Nc1ccc(Oc2ccc(N)cc2)cc1`: the mutagenic call under setting [3] is “inactive; negative”; the mutagenic call (Test System: AMES SALMONELLA TYPHIMURIUM, Strain/Indicator: TA98, Metabolic Activation: RAT, LIVER, S-9, PCB, Method: STANDARD PLATE) was “active; positive”; the mutagenic call under setting [4] is “inactive; negative”; the mutagenic call (Test System: AMES SALMONELLA TYPHIMURIUM, Strain/Indicator: TA100, Metabolic Activation: RAT, LIVER, S-9, PCB, Method: STANDARD PLATE) was “active; positive”.
On to `ClNc1nc(NCl)nc(NCl)n1`, for which the mutagenic call is, setting by setting: (Test System: AMES SALMONELLA TYPHIMURIUM, Strain/Indicator: TA98, Metabolic Activation: HAMSTER, LIVER, S-9, AROCLOR 1254, Method: STANDARD PLATE) “inactive; negative”; under setting [3], “inactive; negative”; under setting [5], “inactive; negative”; (Test System: AMES SALMONELLA TYPHIMURIUM, Strain/Indicator: TA100, Metabolic Activation: HAMSTER, LIVER, S-9, AROCLOR 1254, Method: STANDARD PLATE) “inactive; negative”; under setting [4], “inactive; negative”; under setting [2], “inactive; negative”. Also, the mutagenic call was “inactive; negative” (Test System: AMES SALMONELLA TYPHIMURIUM, Strain/Indicator: TA1535, Metabolic Activation: HAMSTER, LIVER, S-9, AROCLOR 1254, Method: STANDARD PLATE); “inactive; negative” (Test System: AMES SALMONELLA TYPHIMURIUM, Strain/Indicator: TA1535, Metabolic Activation: NONE, Method: STANDARD PLATE); “inactive; negative” under setting [6]; “inactive; negative” (Test System: AMES SALMONELLA TYPHIMURIUM, Strain/Indicator: TA1537, Metabolic Activation: HAMSTER, LIVER, S-9, AROCLOR 1254, Method: STANDARD PLATE); “inactive; negative” under setting [7]; “inactive; negative” under setting [8]. Also, the mutagenic call reads like this: (Test System: AMES SALMONELLA TYPHIMURIUM, Strain/Indicator: TA1538, Metabolic Activation: HAMSTER, LIVER, S-9, AROCLOR 1254, Method: STANDARD PLATE) “inactive; negative”; (Test System: AMES SALMONELLA TYPHIMURIUM, Strain/Indicator: TA1538, Metabolic Activation: NONE, Method: STANDARD PLATE) “inactive; negative”; under setting [9], “inactive; negative”; (Test System: MOUSE LYMPHOMA, Strain/Indicator: L5178Y (TK+/TK-), Metabolic Activation: NONE, Method: SUSPENSION/PLATE) “inactive; negative. reevaluation of results: negative”; under setting [1], “active; positive”.
For `N#CCC#N`, the mutagenic call (Test System: AMES SALMONELLA TYPHIMURIUM, Strain/Indicator: TA97, Metabolic Activation: HAMSTER, LIVER, S-9, AROCLOR 1254 (10%), Method: PREINCUBATION) was “inactive; negative”; the mutagenic call (Test System: AMES SALMONELLA TYPHIMURIUM, Strain/Indicator: TA97, Metabolic Activation: HAMSTER, LIVER, S-9, AROCLOR 1254 (30%), Method: PREINCUBATION) was “inactive; negative”; the mutagenic call (Test System: AMES SALMONELLA TYPHIMURIUM, Strain/Indicator: TA97, Metabolic Activation: NONE, Method: PREINCUBATION) is “inactive; negative”; the mutagenic call (Test System: AMES SALMONELLA TYPHIMURIUM, Strain/Indicator: TA97, Metabolic Activation: RAT, LIVER, S-9, AROCLOR 1254 (10%), Method: PREINCUBATION) was “inactive; negative”; the mutagenic call (Test System: AMES SALMONELLA TYPHIMURIUM, Strain/Indicator: TA97, Metabolic Activation: RAT, LIVER, S-9, AROCLOR 1254 (30%), Method: PREINCUBATION) was “inactive; negative”; the mutagenic call (Test System: AMES SALMONELLA TYPHIMURIUM, Strain/Indicator: TA98, Metabolic Activation: HAMSTER, LIVER, S-9, AROCLOR 1254 (10%), Method: PREINCUBATION) is “inactive; negative”. Also, the mutagenic call reads like this: (Test System: AMES SALMONELLA TYPHIMURIUM, Strain/Indicator: TA98, Metabolic Activation: HAMSTER, LIVER, S-9, AROCLOR 1254 (30%), Method: PREINCUBATION) “inactive; negative”; under setting [10], “inactive; negative”; (Test System: AMES SALMONELLA TYPHIMURIUM, Strain/Indicator: TA98, Metabolic Activation: RAT, LIVER, S-9, AROCLOR 1254 (10%), Method: PREINCUBATION) “inactive; negative”; (Test System: AMES SALMONELLA TYPHIMURIUM, Strain/Indicator: TA98, Metabolic Activation: RAT, LIVER, S-9, AROCLOR 1254 (30%), Method: PREINCUBATION) “inactive; negative”; (Test System: AMES SALMONELLA TYPHIMURIUM, Strain/Indicator: TA100, Metabolic Activation: HAMSTER, LIVER, S-9, AROCLOR 1254 (10%), Method: PREINCUBATION) “inactive; negative”; (Test System: AMES SALMONELLA TYPHIMURIUM, Strain/Indicator: TA100, Metabolic Activation: HAMSTER, LIVER, S-9, AROCLOR 1254 (30%), Method: PREINCUBATION) “inactive; negative”. Further, the mutagenic call runs as follows: under setting [11], “inactive; negative”; (Test System: AMES SALMONELLA TYPHIMURIUM, Strain/Indicator: TA100, Metabolic Activation: RAT, LIVER, S-9, AROCLOR 1254 (10 OR 30%), Method: PREINCUBATION) “inactive; negative”; (Test System: AMES SALMONELLA TYPHIMURIUM, Strain/Indicator: TA1535, Metabolic Activation: HAMSTER, LIVER, S-9, AROCLOR 1254 (10%), Method: PREINCUBATION) “inactive; negative”; (Test System: AMES SALMONELLA TYPHIMURIUM, Strain/Indicator: TA1535, Metabolic Activation: HAMSTER, LIVER, S-9, AROCLOR 1254 (30%), Method: PREINCUBATION) “inactive; negative”; under setting [12], “inactive; negative”; (Test System: AMES SALMONELLA TYPHIMURIUM, Strain/Indicator: TA1535, Metabolic Activation: RAT, LIVER, S-9, AROCLOR 1254 (10 OR 30%), Method: PREINCUBATION) “inactive; negative”.
Regarding `NCC(=O)CCC(=O)O`, the mutagenic call reads like this: under setting [10], “inactive; negative”; under setting [11], “inactive; negative”; (Test System: AMES SALMONELLA TYPHIMURIUM, Strain/Indicator: TA102, Metabolic Activation: NONE, Method: PREINCUBATION) “active; positive”; (Test System: AMES SALMONELLA TYPHIMURIUM, Strain/Indicator: TA104, Metabolic Activation: NONE, Method: PREINCUBATION) “active; positive”; under setting [12], “inactive; negative”.
For `C1=Cc2cc3c4ccccc4ccc3c3cccc1c23`, the mutagenic call under setting [3] was “inactive; negative”; the mutagenic call (Test System: AMES SALMONELLA TYPHIMURIUM, Strain/Indicator: TA98, Metabolic Activation: RAT, LIVER, S-9, AROCLOR 1254 (0.127 OR 1.27 MG S-9 PROTEIN), Method: STANDARD PLATE) was “active; positive”; the mutagenic call under setting [5] was “active; positive”; the mutagenic call under setting [2] is “active; positive”; the mutagenic call under setting [6] was “inactive; negative”; the mutagenic call under setting [8] is “active; positive”. In addition, the mutagenic call under setting [9] was “active; positive”.
Take `Nc1ccc(Nc2c3ccccc3nc3ccccc23)cc1`: under setting [7], the mutagenic call was “active; positive”.

Values taken from PubChem BioAssay AID1259407 (Chemical Carcinogenesis Research Information System (CCRIS), 2018).
